# Assays:
# [1] = target: T1, ORF2p core (Homo sapiens, UniProt O00370); assay: Gel-based L1 RT assay, ORF2p core, inhibition by NRTI triphosphates; format: biochemical; conditions: 100 nM dNTP mixture
# T1 construct: His6-MBP-3C-ORF2p (238-1061, ORFeus-Hs) in pET41; His6-MBP (3C protease site) (N, cleaved yes); made in house; host or cells: E. coli
# Description: (§1) ORF2p core was preincubated with a template:primer containing a single site for the incorporation of a given nucleotide analogue. The primer/template sequence shown in the panel a illustrates the case of single incorporation of 3TC, with a single G for incorporation; the incoming template sequence for entecavir and carbovir has a single C, and for d4T a single A, each at position labeled “N”. Reactions were incubated for one minute at 37 °C with a 100 nM dNTP mixture and increasing concentrations of listed inhibitors. IC50 index, fold = IC50 (drug, µM) ÷ [dNTP] […] Fluorescein-labeled dNTPs (here, uracil-TP) are incorporated by ORF2p into a biotinylated primer, here shown against a poly(A) template. Detection is then achieved using FRET with a terbium cryptate labeled streptavidin, and the time-resolved technique and time-delayed emission from terbium cryptate reduces background from other fluorescent chemicals in the mix. In the presence of ORF2p RT inhibitors (RTIs), base incorporation is stopped and FRET signal is lost. […]
# (§2) ORF2p reverse transcriptase activity assays […]
# Gel-based RT activity assays consisted of pr e-incubating RTs with annealed DNA/RNA, DNA/DNA, or RNA/RNA 5’- end- radiolabeled or 5’-end-Cy5- o r FAM-labeled template:primer duplex or hybrid duplex and, where indicated, inhibitor in the presence of 0.1- 1 μ M dNTP or NTP mixture, 0.25 mM EDTA, 50 mM NaCl, and 25 mM Tris (pH 8) for 10 min at 37°C. Labeled nucleic acids were purchased from Dharmacon or IDT. Unless otherwise indicated, 15 μL reactions were initiated by the addition of 1.3 mM MgCl2, incubated for 10 min at 37 °C, and then stopped by the addition of 15 μL of formamide/EDTA (25 mM) mixture and incubated at 95 °C for 10 min. 3 μL reaction samples were subjected to denaturing 8 M urea 20% PAGE to resolve products followed by signal quantification (ImageQuant 5.2, GE Healthcare Bio- Sciences) through phosphorimaging (Amersham Typhoon 5, Cytivia). Scanned gel images are […]
# minor products; original images are provided in an Extended Data file. […]
# [2] = target: T1, ORF2p core; assay: Homogeneous time-resolved fluorescence (HTRF) ORF2p RT assay; format: biochemical; conditions: HTRF; NRTI NTPs
# Description: as §1, §2
# For HTRF RT assays157, 25 nM ORF2p core and 12. 5 nM t em plat e: primer was incubated at 25°C for 60 minutes
# with 10 nM of fluorescein- 12- dUTP (Thermo), 1 µM each (dATP,dCTP,dGTP), and test compound in a 15 µL
# reaction with buffer containing 50 mM Tris-HCl, 50 mM KCl, 10 mM MgCl2, 10 mM DTT, pH 8.1, and 1% final
# [3] = target: T2, Full-length ORF2p WT (FADD) (Homo sapiens, UniProt O00370); assay: Gel-based RT assay of full-length ORF2p WT (FADD); format: biochemical; conditions: single-nucleotide-resolution RT assays
# T2 construct: gel-based RT assay of full-length ORF2p WT (FADD) or HIV-like (FMDD); His8 (C); HERV-K protease + TEV protease + TEV site (self-processed; leaves one Gly) (N, cleaved yes); made in house; host or cells: SF9 insect cells (MultiBac)
# Description: (§3) Crystal structure of AZT triphosphate bound to HIV-1 RT (PDB 5I42) versus model of AZT triphosphate bound to L1 ORF2p. […] Left, HIV-1 RT in the NNRTI-unbound conformation (PDB 7LRI). Residues involved in NNRTI-resistance are highlighted; space occupied by HIV-1-bound nevirapine is shadowed (PDB 4PUO). Right, equivalent region in L1 ORF2p. The long α-helix corresponds to residues 572–588 in ORF2p. […] Data in a, b and e are representative of two independent experiments and shown as mean ± s.d. […]
# (§4) server155 and manually checked with cutoff of 2.5-3.3 Å for polar interactions and 3.7 Å for van der Waals […]
# (§5) ORF2p reverse transcriptase activity assays
# (§6) Microwell assays were performed using the reverse transcriptase assay, colorimetric (Roche) according to the manufacturer’s instructions, with the supplied poly(A) template and oligo(dT) 15 primer. ORF2p fractions were diluted for assay in lysis/binding buffer (50 mM Tris, 80 mM potassium chloride, 2.5 mM DTT, 0.75 mM EDTA, and 0.5% Triton X- 100; pH 7.8) and incorporation of digoxigenin- and biotin- labeled dUTP into DNA was measured by absorbance at 405 nm as compared to a 490 nm reference. […] 3 μL reaction samples were subjected to denaturing 8 M urea 20% PAGE to resolve products followed by signal quantification (ImageQuant 5.2, GE Healthcare Bio- Sciences) through phosphorimaging (Amersham Typhoon 5, Cytivia). […]
# [4] = target: T3, A701M mutant full-length ORF2p (FMDD) (Homo sapiens, UniProt O00370, A701M); assay: Gel-based RT assay of full-length ORF2p A701M mutant (FMDD); format: biochemical
# T3 construct: His8 (C); HERV-K protease + TEV protease + TEV site (self-processed; leaves one Gly) (N, cleaved yes); made in house; host or cells: SF9 insect cells (MultiBac)
# Description: as §3, §4, §5, §6
# [5] = system: L1 retrotransposition reporter in HeLa cells; assay: LINE-1 dual luciferase retrotransposition assay in HeLa cells; format: cell-based, human; conditions: HeLa cells, stable dual luciferase L1 reporter, normalized to cell viability, n = 3 wells
smiles,measurement,setting,value
"Nc1ccn([C@@H]2CS[C@H](CO)O2)c(=O)n1 [3TC, lamivudine]","IC50 index, fold = IC50 (drug, µM) ÷ [dNTP] (natural counterpart, 0.1 µM)",[1],56 fold
same,IC50,"[1]; NTP forms of NRTIs, one minute at 37 °C",5 to 7 µM
same,IC50,[2],0.2 to 0.75 µM
same,inhibition of full-length ORF2p compared with ORF2p core,[3],similarly inhibited
same,fold more potent in inhibiting A701M mutant full-length ORF2p (FMDD) than wild type (FADD),[4],approximately 15 fold
same,IC50,[5],0.9 µM
same,IC50,"[5]; Homo sapiens, HeLa",1 to 5 µM

# From paper PMC10830420, “Structures, functions and adaptations of the human LINE-1 ORF2 protein” (Nature, 2023)
